Assay results published in patent publication US7470669B2, “Isolated polypeptide comprising a leptin fragment” (Serono Genetics Institute, S.A., priority 1999, dated 2008).
Marks after values point to notes of the source that are not given here.

Columns and labels:
LSR = LSR activity (oleate-induced 125I-LDL binding, uptake, degradation) in primary cultures of rat hepatocytes; type: cell-based; conditions: for oleate-induced LDL degradation / oleate-induced LDL binding: primary rat hepatocytes; for oleate-induced LDL degradation: 22-mer peptides; for oleate-induced LDL binding: peptide concentrations <50 μg/mL
Experimental: FIGS. 6A, 6B, and 6C show the effect of leptin on ^125I-LDL and ^125I-chylomicron binding to LSR in primary cultures of rat hepatocytes. For FIG. 6A, primary cultures of rat hepatocytes (48 hours after plating) were incubated at 37° C. for 30 min in the absence (□) or presence (▪) of 50 ng/mL leptin in Buffer A, followed by a 20 min incubation at 37° C. with 0.5 mM oleate. The cells were then washed with ice-cold PBS, precooled for 10 min, and then incubated for 1 h at 4° C. with increasing concentrations of ^125I-LDL in Buffer A. Cells were washed, were lysed in 0.1 N NaOH and were counted for radioactivity. Results are shown as the mean of duplicate determinations. For FIG. 6B, primary cultures of rat hepatocytes were incubated at 37° C. for 30 min with or without 20 ng/mL leptin followed by incubation at 37° C. for 4 h with 6 μg protein/mL ^125I-chylomicrons in the absence or presence of 0.5 mM oleate in Buffer A. The cells were then washed and the ^125I-chylomicrons bound to the cell surface were released into the media by incubation with 10 mM suramin. The media was recovered and the radioactivity was measured. Results are shown as the mean±SD of six determinations. Fir FIG. 6C, after incubation at 37° C. for 30 min with 50 ng/mL leptin, the cells were incubated at room temperature for 30 min with 200 μg IgG/mL antibodies directed against rat LSR protein or irrelevant IgG. The amount of ^125I-chylomicrons bound was determined, and results are shown as means±SD of triplicate (irrelevant) or quadruplicate (anti-LSR) determinations.
FIGS. 7A and 7B show a comparison of the effect of human and mouse leptin on LSR activity in rat hepatocytes and on postprandial increase in plasma TG in db^Pas/db^Pas mice. For FIG. 7A, primary cultures of rat hepatocytes were incubated 30 min at 37° C. without (open bar) or with 10 ng/mL recombinant human (solid bar) or mouse (hatched bar) leptin in Buffer A. Oleate (0.5 mM) and ^125I-LDL (20 μg/mL) were added and the cells were incubated 2 h at 37° C. The media were removed and were analyzed for TCA-soluble degradation products. The mean of duplicate determinations is shown. For FIG. 7B, db^Pas/db^Pas mice were given a test meal as previously described, followed immediately by injection i.p. of saline (open bar, n=4), human leptin (1 μg/animal; solid bar, n=3) or mouse leptin (0.25 μg/animal; hatched bar; n=3). The data represent the difference in TG concentrations measured at t=0 and the average of the concentrations at 3 and 4 hours. Results are shown as mean±SEM.
Cells were incubated 30 min at 37° C. with increasing concentrations of mouse (▪) or human (●) leptin peptide. Following this, 0.5 mM oleate and 20 μg/mL ^125I-LDL were added and the cells were further incubated for 2 h at 37° C. The cells were washed, and the amount of oleate-induced ^125I-LDL bound and degraded was measured as described previously (Bihain, B. E., and Yen, F. T. (1992). Free fatty acids activate a high-affinity saturable pathway for degradation of low-density lipoproteins in fibroblasts from a subject homozygous for familial hypercholesterolemia. Biochemistry 31, 4628-4636).
FIGS. 11A and 11B show the effect of mouse leptin (FIG. 11A) or leptin peptide (FIG. 11B) on postprandial plasma TG response in ob/ob mice. […] Postprandial triglyceridemia was measured as described previously. Each point represents the mean±SEM (A: saline, n=8, leptin, n=7; leptin peptide: saline, n=8, leptin, n=8). […] Primary cultures of rat hepatocytes were incubated 30 min at 37° C. with increasing concentrations of mouse leptin peptide. Oleate (0.5 mM) and ^125I-LDL (20 μg/mL) were added and the cells were incubated 2 h at 37° C. After washing, the amount of 125I-LDL bound to the cell surface was measured as described in the Examples section herein. […]

ob/ob mice = test: Postprandial plasma TG response after high-fat test meal in ob/ob mice; type: in vivo, mouse; conditions: for postprandial lipemic response: single subcutaneous injection of 50 ng
Experimental: FIGS. 11A and 11B show the effect of mouse leptin (FIG. 11A) or leptin peptide (FIG. 11B) on postprandial plasma TG response in ob/ob mice. […] Postprandial triglyceridemia was measured as described previously. Each point represents the mean±SEM (A: saline, n=8, leptin, n=7; leptin peptide: saline, n=8, leptin, n=8). […] Primary cultures of rat hepatocytes were incubated 30 min at 37° C. with increasing concentrations of mouse leptin peptide. Oleate (0.5 mM) and ^125I-LDL (20 μg/mL) were added and the cells were incubated 2 h at 37° C. After washing, the amount of 125I-LDL bound to the cell surface was measured as described in the Examples section herein.
Mice that were fasted for 2-3 hours were gavage-fed 300 μL of a test meal consisting of 60% fat (37% saturated, 27% mono-, and 36% polyunsaturated fatty acids), 20% protein and 20% carbohydrate, and providing 56 kcal of energy/kg (1.5 g butter, 1.5 g sunflower oil, 2.5 g nonfat dry milk, 2.5 g sucrose and 3 ml water). Immediately after the meal, the animals were injected intravenously (db/db) or intraperitoneally (db^Pas/db^Pas) with either 200 μL physiological saline or 200 μL of the same solution containing recombinant mouse leptin. At selected time intervals, 20 μL of blood were collected from the orbital (db^Pas/db^Pas) or tail (db/db) vein into ice-cold microfuge tubes containing 4 mmol/L EDTA. Plasma was obtained by centrifugation at 2500 rpm for 20 min at 4° C., and was frozen as aliquots at −80° C. before analysis. TG concentrations were determined using a commercially available enzymatic kit with controls included in each assay (Precinorm L, Roche-Boehringer Mannheim; Lyotrol N, BioMérieux).
The inhibition of the intestinal absorption of dietary lipids by leptin was also investigated. Overnight-fasted ob/ob mice were gavage-fed a high fat test meal. […] Blood samples were taken at 2 and 3 h after the test meal, and plasma TG concentrations were measured (see Table, below). […]

Substance | oleate-induced LDL degradation (LSR) | oleate-induced LDL binding (LSR) | postprandial lipemic response (ob/ob mice) | oleate-induced binding of 125I-LDL (LSR; primary cultures of rat hepatocytes (FIG. 11B insert)) | Plasma TG 2-3 hours after test meal (ob/ob mice; i.v. 0.5 μg recombinant mouse leptin and/or 2.5 mg lactoferrin, mean ± SD)
CHLPWASGLETLDSLGGVLEAS (listed as Homo sapiens) [human peptide, human leptin fragment residues 117-138, 22-mer] | inhibitory effect | increased |  |  | 
CSLPQTSGLQKPESLDGVLEAS (listed as Mus musculus) [mouse peptide, mouse leptin fragment residues 117-138, 22-mer] | inhibitory effect | increased | reduced the postprandial lipemic response | stimulate | 
leptin: plasma protein of 16 kDa produced by adipocytes; recombinant human or mouse leptin, species depends on the experiment |  |  | decreases the postprandial lipemic response |  | 0.79 ± 0.1* mg/mL
